Source: patent US20040161861A1, “Glycoconjugate sensors” (priority 2002, published 2004)

How the values were obtained:
Conditions in all cases: colorimetric ELISA, OD at 405 nm, FIG. 5
[1] = system: B. pumilus spores; format: binding
[2] = system: B. subtilis spores; format: binding, Bacillus subtilis
[3] = system: B. cereus spores; format: binding, Bacillus cereus
[4] = system: B. thuringiensis spores; format: binding, Bacillus thuringiensis

Substance: Gal β1-3 GalNAc β-PAA-flu
- binding match between spores and immobilized glycoconjugate [1]: bound

Substance: Gal β1-3GalNAc α-PAA-flu
- binding match between spores and immobilized glycoconjugate [1]: bound

Substance: Gal β1-3 Gal β-PAA-flu
- binding match between spores and immobilized glycoconjugate [2]: bound

Substance: Gal α 1-3 GalNAc α-PAA-flu
- binding match between spores and immobilized glycoconjugate [3]: bound

Substance: Fuc α1-3 GlcNAc β-PAA-flu
- binding match between spores and immobilized glycoconjugate [4]: bound

Substance: Gal β 1-4 Glc β-PAA-flu
- binding match between spores and immobilized glycoconjugate [3]: bound

Substance: Fuc α 1-4 GlcNAc β-PAA-flu
- binding match between spores and immobilized glycoconjugate [4]: bound

Substance: GlcNAc β 1-4 GlcNAc β-PAA-flu
- binding match between spores and immobilized glycoconjugate [2]: bound
